This note sets out measurements from ChEMBL document CHEMBL1201862, “PubChem BioAssay data set” (2004).

One assay concerns the target T1, CAAX prenyl protease 2 (Saccharomyces cerevisiae S288c, UniProt Q03530).
T1 sequence (Q03530 whole entry): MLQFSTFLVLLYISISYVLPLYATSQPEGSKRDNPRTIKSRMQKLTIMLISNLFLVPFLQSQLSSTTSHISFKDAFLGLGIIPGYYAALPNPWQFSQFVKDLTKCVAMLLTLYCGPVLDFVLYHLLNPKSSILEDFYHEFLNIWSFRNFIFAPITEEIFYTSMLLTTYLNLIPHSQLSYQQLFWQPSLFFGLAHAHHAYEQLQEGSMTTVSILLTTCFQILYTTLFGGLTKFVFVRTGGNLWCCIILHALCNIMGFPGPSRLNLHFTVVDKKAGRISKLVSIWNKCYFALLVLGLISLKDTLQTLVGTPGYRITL
The format is biochemical.

A short description of assay [1]: growth suppression of PTEN-null colon cells, dose response, cell-based, HCT116 PTEN knockout (AID 1047).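 Also: HCT116 colon tumor cells with PTEN knocked out; cells exposed to compound for 60 hours before readout; potency for loss of cell viability measured by luminescence.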 The format is functional.
Assay [2] is described as follows: growth suppression of beta-catenin-knockout colon cells, dose response, cell-based, HCT116, human colon tumor (AID 1045).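 Also: HCT116 colon tumor cells with beta catenin knocked out; cells exposed to compound for 60 hours.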 The format is functional.
Assay [3] addresses Induced myeloid leukemia cell differentiation protein Mcl-1 (Homo sapiens, UniProt Q07820). Kind of assay: Mcl-1/Noxa binding inhibitor potency, dose response, biochemical, TR-FRET (AID 1417). The format is functional.
Assay [4] deals with 26S proteasome non-ATPase regulatory subunit 14 (Homo sapiens, UniProt O00487). Briefly: inhibition of proteasome subunit RPN11 – biochemical, fluorescence polarization, uHTS hits, confirmation (AID 602368). Format: functional.
Assay [5] concerns the target 72 kDa type IV collagenase (Homo sapiens, UniProt P08253). Kind of assay: Dose Response validation of uHTS RPN11 inhibitor hits using a MMP-2 Fluorescence assay. Format: functional.
For a further assay, the target named is Prothrombin (Bos taurus, UniProt P00735). Briefly: thrombin inhibition, dose response, biochemical, fluorescence polarization, uHTS hits (AID 602369). Format: functional.
The target of assay [6] is FAD-linked sulfhydryl oxidase ALR (Homo sapiens, UniProt P55789). Briefly: inhibitors of human ALR sulfhydryl oxidase, dose response, biochemical, H2O2 detection, luminescence, cherry-pick (AID 493248).
Assay [7] concerns the target T2, Rac GTPase-activating protein 1 (Homo sapiens, UniProt Q9H0H5).
T2 sequence (Q9H0H5 whole entry): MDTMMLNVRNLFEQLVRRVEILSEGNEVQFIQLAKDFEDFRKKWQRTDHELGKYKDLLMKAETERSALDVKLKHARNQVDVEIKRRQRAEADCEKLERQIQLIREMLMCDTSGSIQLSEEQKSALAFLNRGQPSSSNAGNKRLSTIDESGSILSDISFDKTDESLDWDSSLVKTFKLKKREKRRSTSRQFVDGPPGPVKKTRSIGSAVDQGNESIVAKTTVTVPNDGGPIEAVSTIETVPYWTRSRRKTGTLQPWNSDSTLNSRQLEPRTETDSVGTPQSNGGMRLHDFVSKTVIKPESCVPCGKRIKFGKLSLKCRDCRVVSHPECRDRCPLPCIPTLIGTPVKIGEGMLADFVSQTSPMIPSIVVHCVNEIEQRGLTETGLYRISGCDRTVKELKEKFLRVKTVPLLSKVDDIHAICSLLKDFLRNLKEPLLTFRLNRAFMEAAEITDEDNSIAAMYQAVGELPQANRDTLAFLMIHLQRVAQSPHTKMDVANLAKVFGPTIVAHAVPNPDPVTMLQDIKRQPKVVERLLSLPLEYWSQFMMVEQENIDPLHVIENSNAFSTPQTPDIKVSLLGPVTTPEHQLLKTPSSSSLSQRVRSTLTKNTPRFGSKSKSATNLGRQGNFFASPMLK
Briefly: MgcRacGAP GTPase-activating activity inhibitors, confirmation, biochemical, ADP Hunter fluorescence, primary and confirmatory (AID 624330). The format is functional.

In assay [8] the test system is BJ. Kind of assay: cytotoxicity toward BJ-TERT fibroblasts, dose response, cell-based, RAS-independent, luminescence (AID 1933). To be noted: Homo sapiens. Format: functional.
Assay [9] has as its system BJ. Kind of assay: cells. Format: functional, cell-based. Conditions: Homo sapiens.
Assay [10] relates to BJ. Kind of assay: cytotoxicity toward BJ-TERT-LT-ST fibroblasts, dose response, cell-based, RAS-independent, luminescence (AID 1935).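 Also: BJ fibroblasts immortalized with TERT plus LT and ST oncogenes.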 To be noted: Homo sapiens. Format: functional.
Assay [11] is described as follows: cytotoxicity toward DRD oncogenic fibroblasts, dose response, cell-based, non-viral oncogenic, luminescence (AID 1934). The format is functional. Conditions: Homo sapiens.
The target in assay [12] is T3, Replicative DNA helicase DnaB (Mycobacterium tuberculosis, UniProt P9WMR3).
T3 sequence (P9WMR3 whole entry): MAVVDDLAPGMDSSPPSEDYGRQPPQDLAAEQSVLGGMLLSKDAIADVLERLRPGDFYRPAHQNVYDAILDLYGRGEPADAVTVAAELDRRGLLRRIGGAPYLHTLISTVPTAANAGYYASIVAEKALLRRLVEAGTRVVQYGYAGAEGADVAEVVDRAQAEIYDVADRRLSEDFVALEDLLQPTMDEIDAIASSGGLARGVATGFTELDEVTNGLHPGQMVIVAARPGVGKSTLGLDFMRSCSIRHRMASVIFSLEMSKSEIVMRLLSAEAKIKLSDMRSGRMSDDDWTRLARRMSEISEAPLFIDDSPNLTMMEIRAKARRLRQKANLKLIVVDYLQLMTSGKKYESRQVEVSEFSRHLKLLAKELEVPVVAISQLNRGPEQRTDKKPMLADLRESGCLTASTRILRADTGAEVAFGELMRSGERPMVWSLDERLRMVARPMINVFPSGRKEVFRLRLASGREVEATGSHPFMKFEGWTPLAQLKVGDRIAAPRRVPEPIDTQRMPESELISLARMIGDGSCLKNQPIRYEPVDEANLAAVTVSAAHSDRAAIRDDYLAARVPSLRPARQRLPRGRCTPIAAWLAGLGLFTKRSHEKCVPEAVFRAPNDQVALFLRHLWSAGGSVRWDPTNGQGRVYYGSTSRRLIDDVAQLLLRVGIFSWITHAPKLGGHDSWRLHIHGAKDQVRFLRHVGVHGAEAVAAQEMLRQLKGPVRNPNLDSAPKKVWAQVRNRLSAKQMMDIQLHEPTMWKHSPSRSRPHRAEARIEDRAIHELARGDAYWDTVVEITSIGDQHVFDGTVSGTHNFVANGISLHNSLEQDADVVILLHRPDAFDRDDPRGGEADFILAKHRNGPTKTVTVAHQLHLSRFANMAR
Kind of assay: DnaB intein splicing inhibitors, dose response, biochemical, cell-free fluorescence (AID 449749). The format is functional.

The target in another assay is T4, Protein RecA (Mycobacterium tuberculosis, UniProt P9WHJ3).
T4 sequence (P9WHJ3 whole entry): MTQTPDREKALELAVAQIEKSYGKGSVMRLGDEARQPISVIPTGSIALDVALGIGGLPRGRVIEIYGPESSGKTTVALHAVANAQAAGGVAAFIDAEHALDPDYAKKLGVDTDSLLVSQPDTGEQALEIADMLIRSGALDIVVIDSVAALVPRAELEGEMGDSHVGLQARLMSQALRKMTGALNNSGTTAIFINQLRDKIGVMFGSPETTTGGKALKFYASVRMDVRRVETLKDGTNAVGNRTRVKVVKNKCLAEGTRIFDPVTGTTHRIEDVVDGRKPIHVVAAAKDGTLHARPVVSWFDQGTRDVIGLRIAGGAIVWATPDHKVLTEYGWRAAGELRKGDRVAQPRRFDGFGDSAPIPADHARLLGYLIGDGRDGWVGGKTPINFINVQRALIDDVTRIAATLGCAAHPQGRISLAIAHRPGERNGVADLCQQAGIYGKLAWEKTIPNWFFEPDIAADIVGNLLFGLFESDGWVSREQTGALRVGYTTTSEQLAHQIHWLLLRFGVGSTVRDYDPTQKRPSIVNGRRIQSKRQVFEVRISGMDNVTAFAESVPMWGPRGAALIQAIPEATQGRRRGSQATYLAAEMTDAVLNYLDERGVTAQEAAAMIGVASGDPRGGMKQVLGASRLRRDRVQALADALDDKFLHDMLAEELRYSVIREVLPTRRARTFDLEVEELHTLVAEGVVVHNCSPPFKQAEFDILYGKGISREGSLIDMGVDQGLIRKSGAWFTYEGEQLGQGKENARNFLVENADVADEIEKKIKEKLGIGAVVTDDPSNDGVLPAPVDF
Briefly: Fluorescence Cell-Free Homogeneous Dose Retest to Identify Inhibitors of RecA-Intein Splicing Activity. [Related pubchem assays (depositor defined):AID2097, AID2223, AID489010, AID492950]. The format is functional.

The next assay deals with T5, Leucine aminopeptidase (Plasmodium falciparum 3D7, UniProt Q8IL11).
T5 sequence (Q8IL11 whole entry): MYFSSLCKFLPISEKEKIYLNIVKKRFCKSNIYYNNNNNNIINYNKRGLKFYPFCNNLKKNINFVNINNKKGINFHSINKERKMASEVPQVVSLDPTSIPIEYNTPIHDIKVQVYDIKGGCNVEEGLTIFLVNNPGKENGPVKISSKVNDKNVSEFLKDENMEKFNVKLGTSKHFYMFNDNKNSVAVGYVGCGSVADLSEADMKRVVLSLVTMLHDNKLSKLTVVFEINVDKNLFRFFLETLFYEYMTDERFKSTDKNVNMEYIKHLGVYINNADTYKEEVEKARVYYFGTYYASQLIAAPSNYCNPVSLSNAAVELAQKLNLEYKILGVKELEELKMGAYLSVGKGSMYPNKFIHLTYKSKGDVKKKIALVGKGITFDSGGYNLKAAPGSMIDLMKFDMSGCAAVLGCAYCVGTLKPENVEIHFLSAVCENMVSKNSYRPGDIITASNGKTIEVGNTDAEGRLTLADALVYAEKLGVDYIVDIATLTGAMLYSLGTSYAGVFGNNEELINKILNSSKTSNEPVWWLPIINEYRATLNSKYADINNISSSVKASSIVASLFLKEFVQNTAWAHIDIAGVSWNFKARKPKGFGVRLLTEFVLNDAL
Briefly: P. falciparum M17LAP inhibitors, primary screen, biochemical, fluorogenic H-Leu-NHMec substrate, 1536-well (AID 1619). The format is functional.

A further assay deals with T6, Aminopeptidase N (Plasmodium falciparum FcB1/Columbia, UniProt O96935).
T6 sequence (O96935 whole entry): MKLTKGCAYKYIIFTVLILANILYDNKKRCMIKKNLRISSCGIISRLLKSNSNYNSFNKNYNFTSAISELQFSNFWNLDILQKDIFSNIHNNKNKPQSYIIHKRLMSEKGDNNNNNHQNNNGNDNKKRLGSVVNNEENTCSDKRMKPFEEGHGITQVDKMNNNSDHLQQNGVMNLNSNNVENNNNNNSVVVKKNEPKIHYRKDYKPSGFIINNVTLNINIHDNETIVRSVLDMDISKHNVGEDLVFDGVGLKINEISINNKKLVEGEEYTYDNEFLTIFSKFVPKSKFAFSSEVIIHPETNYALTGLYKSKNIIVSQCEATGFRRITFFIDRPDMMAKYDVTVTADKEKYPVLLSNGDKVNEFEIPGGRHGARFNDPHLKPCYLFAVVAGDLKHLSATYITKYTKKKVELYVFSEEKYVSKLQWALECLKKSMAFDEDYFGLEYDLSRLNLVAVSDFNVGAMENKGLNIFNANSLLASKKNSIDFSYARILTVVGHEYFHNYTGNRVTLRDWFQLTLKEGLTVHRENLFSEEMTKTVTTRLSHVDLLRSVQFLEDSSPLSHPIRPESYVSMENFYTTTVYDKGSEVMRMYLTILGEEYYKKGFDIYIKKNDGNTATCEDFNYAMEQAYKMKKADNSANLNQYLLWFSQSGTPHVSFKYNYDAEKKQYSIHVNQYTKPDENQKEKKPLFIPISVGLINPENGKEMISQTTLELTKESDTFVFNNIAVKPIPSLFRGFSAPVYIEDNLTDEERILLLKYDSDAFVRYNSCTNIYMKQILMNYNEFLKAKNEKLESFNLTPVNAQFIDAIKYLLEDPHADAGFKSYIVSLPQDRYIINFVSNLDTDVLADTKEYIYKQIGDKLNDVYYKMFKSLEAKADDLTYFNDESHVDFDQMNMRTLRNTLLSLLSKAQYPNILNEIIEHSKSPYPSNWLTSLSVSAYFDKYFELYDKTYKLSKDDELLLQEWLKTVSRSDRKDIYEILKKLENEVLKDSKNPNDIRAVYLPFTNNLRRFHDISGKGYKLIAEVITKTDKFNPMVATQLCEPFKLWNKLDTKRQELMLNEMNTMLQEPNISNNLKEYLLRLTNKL
Kind of assay: P. falciparum M1AAP inhibitors, biochemical, fluorogenic H-Leu-NHMec substrate, 1536-well (AID 1445). The arrangement: species or system Plasmodium falciparum 3D7, 3D7.

Calls of active or inactive are those of the source.

Induced myeloid leukemia cell differentiation protein Mcl-1, sequence (Q07820 whole entry): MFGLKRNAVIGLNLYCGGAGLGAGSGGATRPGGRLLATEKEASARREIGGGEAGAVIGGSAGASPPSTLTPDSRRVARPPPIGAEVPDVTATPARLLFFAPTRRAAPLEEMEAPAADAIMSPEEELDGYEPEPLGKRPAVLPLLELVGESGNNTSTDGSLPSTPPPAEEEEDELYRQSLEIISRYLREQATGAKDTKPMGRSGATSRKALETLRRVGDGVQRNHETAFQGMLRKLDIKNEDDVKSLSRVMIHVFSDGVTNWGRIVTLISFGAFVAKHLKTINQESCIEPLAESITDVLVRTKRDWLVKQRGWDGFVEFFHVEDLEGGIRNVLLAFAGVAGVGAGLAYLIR
26S proteasome non-ATPase regulatory subunit 14, sequence (O00487 whole entry): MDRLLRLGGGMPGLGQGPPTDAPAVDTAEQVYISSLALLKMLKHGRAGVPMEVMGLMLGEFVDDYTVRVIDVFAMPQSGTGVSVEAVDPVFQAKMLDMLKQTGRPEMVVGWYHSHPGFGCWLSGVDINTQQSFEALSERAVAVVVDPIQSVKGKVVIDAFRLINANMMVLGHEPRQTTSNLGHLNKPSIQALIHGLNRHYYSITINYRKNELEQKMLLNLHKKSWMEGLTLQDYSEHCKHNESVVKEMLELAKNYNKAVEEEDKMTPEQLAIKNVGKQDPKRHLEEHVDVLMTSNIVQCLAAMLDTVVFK
FAD-linked sulfhydryl oxidase ALR, sequence (P55789 whole entry): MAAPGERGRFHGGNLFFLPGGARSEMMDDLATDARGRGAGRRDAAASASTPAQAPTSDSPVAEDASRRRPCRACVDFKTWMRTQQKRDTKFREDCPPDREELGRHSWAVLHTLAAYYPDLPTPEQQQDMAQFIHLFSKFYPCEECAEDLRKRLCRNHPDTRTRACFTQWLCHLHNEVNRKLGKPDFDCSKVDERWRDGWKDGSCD
72 kDa type IV collagenase, sequence (P08253 whole entry): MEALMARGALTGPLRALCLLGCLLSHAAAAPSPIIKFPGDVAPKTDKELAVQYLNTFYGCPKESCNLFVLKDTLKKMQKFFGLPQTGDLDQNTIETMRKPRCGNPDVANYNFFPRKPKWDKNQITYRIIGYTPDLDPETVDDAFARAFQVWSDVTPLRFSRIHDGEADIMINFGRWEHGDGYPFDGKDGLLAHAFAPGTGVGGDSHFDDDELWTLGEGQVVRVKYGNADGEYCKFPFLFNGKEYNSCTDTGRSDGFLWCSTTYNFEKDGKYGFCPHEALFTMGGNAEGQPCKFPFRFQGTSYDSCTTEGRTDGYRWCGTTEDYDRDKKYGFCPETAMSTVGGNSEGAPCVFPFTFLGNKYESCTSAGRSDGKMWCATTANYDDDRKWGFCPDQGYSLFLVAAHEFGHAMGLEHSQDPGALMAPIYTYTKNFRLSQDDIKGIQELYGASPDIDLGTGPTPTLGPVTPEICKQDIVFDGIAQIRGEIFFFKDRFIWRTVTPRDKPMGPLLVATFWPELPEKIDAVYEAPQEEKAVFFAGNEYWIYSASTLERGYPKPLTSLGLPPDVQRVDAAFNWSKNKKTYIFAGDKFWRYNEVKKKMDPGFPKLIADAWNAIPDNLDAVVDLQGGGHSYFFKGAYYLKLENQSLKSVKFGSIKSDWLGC

Turning to `Cc1cccc(NC(=O)C2(c3ccc([N+](=O)[O-])cc3)CCCC2)c1`, the AC50 at CAAX prenyl protease 2 is 14 µM (active).

On to `COc1ccc2nc(N3C(=O)/C(=C/c4ccc(Cl)cc4)NC3=S)sc2c1`, for which the figures for the EC50 in [1] and in [2] were 28.3 µM (active) and 30.4 µM (active), respectively. The IC50 in assay [3] is 1.5 µM (active); in assay [4], 13.3 µM (active); in [5] it was 33.5 µM (active); on Prothrombin it was 53 µM (active).

Take `Cc1ccc(S(=O)(=O)Nc2ccc(N(C)C)cc2)cc1`: the IC50 in assay [3] was 10.7 µM (not active); in assay [7], 33.1 µM (active). In addition, the AC50 in [6] is 4.46 µM (active).

Consider `O=C(CCl)Nc1c(C(=O)Nc2ccc3c(c2)OCCO3)oc2ccccc12`, for which the EC50 was 3.66 µM (active) in the assay on BJ [8]; 29.4 µM (active) in the assay with BJ [9]; > 150 µM (inconclusive) in the assay with BJ [10]; 19 µM (active) in [11]; 1.06 µM (active) at Protein RecA. Also, the AC50 in [12] is 7.89 µM (active).

As to `CCc1nnc(NC(=O)CSc2nnc(-c3ccc(NS(=O)(=O)c4ccccc4)cc3)o2)s1`, the IC50 is < 1 µM (active) on Leucine aminopeptidase and 59.8 µM (active) on Aminopeptidase N.

For `Cc1ccc(C(=O)OCC(=O)Nc2ccc(N(C)C)cc2)cc1NC(=O)c1ccco1`, the IC50 in assay [3] is on record as 3.67 µM (not active).
